Test results published in patent US5686613A, “Tridentate metal ligands of certain pyridine phosphonic acids” (priority 1996, dated 1997).
Like-named read-outs stand apart in the source and are kept apart here.

Experiments:
[1] = Degradation of Fe(III)-2,6 PDPA in H2S redox reaction without stabilizer (uv-vis spectrophotometric analysis), pH 8.5 and 25° C.; type: physicochemical; details: pH 8.5, 25° C., no stabilizer
Protocol: Both ligands were evaluated in the iron chelate form.
The concentration of 2,6 PDPA was analyzed by the following uv-vis spectrophotometric measurements: to 1.0 mL of solution taken from the continuous reactor, 150 mg of NaOH in 15 mL water was added with stirring. The mixture was heated with a steam-bath for 2 hr, then allowed to stand at room temperature for 2 hr. […] The filtrate combined with the washings, was transferred to a 50 mL volumetric flask, and diluted to […] with 6M HCl. This solution was ready for uv-vis spectrophotometric analysis.

[2] = Degradation of Fe(III) chelate ligand in H2S redox reaction in the presence of thiosulfate stabilizer; type: physicochemical; details: for NTA (M) (concentration remaining) / NTA, % Remaining: Fe(III)-NTA, pH 8.5, 32 g Na2S2O3 per liter
Text: Table 3 and FIG. 5 contain the data obtained from a run with the continuous glass reaction apparatus described above.

[3] = Protocol: The degradation resistances of pyridine-2-phosphonic-6-carboxylic acid (2P6C) and pyridine-2,6-diphosphonic acid (2,6-PDPA), prepared by the synthesis schemes presented in FIGS. 2 and 3, respectively, were evaluated as described below. Both ligands were evaluated in the iron chelate form.
1. Degradation of Fe(III)-2P6C at pH 8.5 and 25° C. (Fe(III)0.018M, 2P6C 0.036 M; H2 S flow rate=2.0 mL/min.)
(§1) The redox reaction was carried out in a continuous glass reaction apparatus as described in D. Chen, R. J. Motekaitis, A. E. Martell and D. McManus, Can. J. Chem., 71, 1524 (1993) which is incorporated herein by reference.
Preparation of iron-free sample. To 4.0 mL of solution taken from the continuous reactor, 100 mg of NaOH in 20 mL water were added dropwise with stirring. The mixture was heated to 70°-80° C. for 30 min. The Fe(OH)3 that precipitated was filtered off carefully and was washed several times with water. The filtrate was combined with the washings and was transferred to a 50 mL volumetric flask. The pH of the solution was adjusted with acid to 4.2, and then diluted with distilled water to 50 mL.
Operating conditions. Analytical column: I-SIL 5 C8, reverse phase 4.5×150 mm; Column temperature: ambient; mobile phase flow rate: 1.5 mL/min; Detector: UV at 275 nm, 0.20 AUFS; Sample volume: 20 microliter; Recorder: 10 mV full-scale; Chart speed: 0.5 cm/min. The mobile phase contained: 0.0010 M Cu(II), 60:40 H2 O: MeOH, 2% HOAc, 0.2% CH3 (CH2)15 (CH3)3 NBr, adjusted to pH 4.2 With NaOH solution.
Using the same test conditions described above, the degradation of nitrilotriacetic acid (NTA) was evaluated.

[4] = remark: listed apart in the source
Protocol: as §1
Experimental runs were also conducted with 2P6C, with and without K2 SO3 added as a stabilizer.

[5] = iron chelate, cited from earlier work
[6] = h2s redox reactor, 100 h, 36000 µM, pH 8.5

In the case of `O=P(O)(O)c1cccc(P(=O)(O)O)n1` [2,6-PDPA, pyridine-2,6-diphosphonic acid], the “degradation” value ([1]; 100 hr, Fe(III) 0.0090 M, 2,6 PDPA 0.018 M) is reported as “no significant degradation was observed”, the “degradation, estimated” value ([1]; over 100 hr, 18000 µM) is reported as “less than 5%” and the “degradation in the presence of thiosulfate” value ([2]; after 100 hr of operation, thiosulfate) is reported as “no detectable degradation was observed”.

For `O=C(O)c1cccc(P(=O)(O)O)n1` [2P6C, pyridine-2-phosphonic-6-carboxylic acid], the “degradation compared with NTA” value [3] was “degrades much more slowly than NTA”, the “2P6C % Remaining” value ([3]; 0 min, 36000 uM, pH 8.5) was 100.0% and the “2P6C % Remaining” value ([3]; h2s redox reactor, 25 h, 36000 µM, pH 8.5) was 94.4%. The “2P6C % Remaining” value ([3]; h2s redox reactor, 50 h, 36000 µM, pH 8.5) was 86.1%, the “2P6C % Remaining” value ([3]; h2s redox reactor, 84 h, 36000 µM, pH 8.5) was 83.3% and the “2P6C % Remaining” value [3, 6] was 80.6%. The “2P6C lost after redox reaction” value [3, 6] was “about 20%”, the “degradation during the redox reaction” value ([3]; pH 8.5) was “degrades very slowly” and the “effect of hydroxylation/degradation on the process” value ([3]; pH 8.5) was “no deleterious effect on the process is observed”. The “degradation in the presence of thiosulfate” value [2] was “no detectable degradation was observed”, the “2P6C % Remaining” value ([4]; 0 min) was 100.0% and the “2P6C % Remaining” value ([4]; h2s reactor, 5% k2so3, 2 h) was 100.0%. The “2P6C % Remaining” value ([4]; h2s reactor, 5% k2so3, 20 h) was 97.7%, the “2P6C % Remaining” value ([4]; h2s reactor, 5% k2so3, 44 h) was 97.6% and the “2P6C % Remaining” value ([4]; h2s reactor, 5% k2so3, 68 h) was 97.4%. For the same compound, the “2P6C % Remaining” value ([4]; h2s reactor, 5% k2so3, 92 h) was 98.9%.

For `O=C(O)c1cccc(C(=O)O)n1` [2,6-pyridinedicarboxylic acid], the “precipitation of ferric hydroxide from ferric chelate” value ([5]; normal pH of the process) is listed as “unacceptable precipitation of ferric hydroxide” and the “resistance to catalyst degradation” value [5] is listed as “good resistance to catalyst degradation”.

With `O=C(O)CN(CC(=O)O)CC(=O)O` [NTA, nitrilotriacetic acid] the “NTA, % Remaining” value ([3]; 0 min, pH 8.5) was 100.0%, the “NTA, % Remaining” value ([3]; h2s redox reactor, 12 h, pH 8.5) was 75.7% and the “NTA, % Remaining” value ([3]; h2s redox reactor, 20 h, pH 8.5) was 65.7%. For the same compound, the “NTA, % Remaining” value ([3]; h2s redox reactor, 30 h, pH 8.5) was 52.4%, the “NTA, % Remaining” value ([3]; h2s redox reactor, 40 h, pH 8.5) was 49.4% and the “NTA, % Remaining” value ([3]; h2s redox reactor, 64 h, pH 8.5) was 32.9%. For the same compound, the “NTA, % Remaining” value ([3]; h2s redox reactor, 77 h, pH 8.5) was 26.2%, the “degradation with thiosulfate” value [2] was “much slower when thiosulfate is added” and the “rate of degradation with thiosulfate” value [2] was “still measurable”. For the same compound, the “NTA (M) (concentration remaining)” value ([2]; 0 hr) was 0.0362 M, the “NTA, % Remaining” value ([2]; 0 hr) was 100.0% and the “NTA (M) (concentration remaining)” value ([2]; 14.0 hr) was 0.0344 M. The “NTA, % Remaining” value ([2]; 14.0 hr) was 95.0%, the “NTA (M) (concentration remaining)” value ([2]; 26.0 hr) was 0.0333 M and the “NTA, % Remaining” value ([2]; 26.0 hr) was 92.0%. For the same compound, the “NTA (M) (concentration remaining)” value ([2]; 39.0 hr) was 0.0320 M, the “NTA, % Remaining” value ([2]; 39.0 hr) was 88.4% and the “NTA (M) (concentration remaining)” value ([2]; 50.0 hr) was 0.0317 M. The “NTA, % Remaining” value ([2]; 50.0 hr) was 87.6%, the “NTA (M) (concentration remaining)” value ([2]; 66.0 hr) was 0.0306 M and the “NTA, % Remaining” value ([2]; 66.0 hr) was 84.5%. The “NTA (M) (concentration remaining)” value ([2]; 80.0 hr) was 0.0297 M, the “NTA, % Remaining” value ([2]; 80.0 hr) was 82.0% and the “NTA (M) (concentration remaining)” value ([2]; 99.0 hr) was 0.0293 M. The “NTA, % Remaining” value ([2]; 99.0 hr) was 80.9%.
